Patent US9901558B2, “Enhancer of survival of transplanted organ” (SBI Pharmaceuticals Co., Ltd., priority 2011, dated 2018)

Tested on: heterotopic heart-transplanted model mice
Assay: Heterotopic homologous heart transplantation in mice (B10 donors to CBA recipients), heart graft beating/survival
Format: in vivo
Details: group (b), n = 5: both donor and recipient mice received ALA (100 mg/kg) alone
Text: B10 mice (male, 10 weeks old on average, body weight: 20 to 25 g) were used as donors for the hearts to be transplanted. CBA mice (male, 10 weeks old on average, body weight: 20 to 25 g) were used as recipients to receive the hearts taken out of the donors. The procedures of the heterotopic homologous heart transplantation in mice followed the description of Experimental Manual of Organ Transplantation (Shujunsha Co., Ltd.), Paragraph 1, Part 2, 2-1-5 “Heterotopic Heart Transplantation in Mice”. Hereinafter, the procedures will be summarized.
The thorax of each donor mouse was opened under anesthesia and sufficiently perfused using 1 mL of saline supplemented with cold heparin, followed by excision of the heart. The excised heart was preserved in saline supplemented with cold heparin. The abdomen of each recipient mouse was opened under anesthesia, and the heart excised from the donor mouse was transplanted into the abdominal vena cava to prepare heterotopic heart-transplanted model mice.
The heterotopic heart-transplanted model mice were divided into groups (1) to (4) with administration patterns shown in Table 1 below. An experiment was conducted on the oral administration of the agent for promoting graft survival of the present invention. […]

## NCC(=O)CCC(=O)O [ALA, 5-aminolevulinic acid]
  long-term beating of heart graft: seen in none of these individuals
